Here are results for 7 compounds from the Kinase Knowledgebase extract (Sharma et al. 2016).

“And” between values parts separate entries of the source, which are not always exact repeats. Equal entries are not always repeated.

In this test the target is CDK2 (human) (UniProt P24941). Briefly: Enzyme Assay.
In the case of `COc1cccc(CN2CCC(Nc3nc(N[C@H]4CC[C@H](N)CC4)nc4c3ncn4C3CCCC3)CC2)c1`, the IC50 is 140 nM and 300 nM and 340 nM. As for `Cc1ccc(CN2CCC(Nc3nc(N[C@H]4CC[C@H](N)CC4)nc4c3ncn4C3CCCC3)CC2)cc1`, the IC50 was 170 nM and 230 nM. For the compound `COc1ccccc1CN1CCC(Nc2nc(N[C@H]3CC[C@H](N)CC3)nc3c2ncn3C2CCCC2)CC1`, the IC50 is 240 nM and 110 nM and 80 nM.

Turning to `N[C@H]1CC[C@H](Nc2nc(NC3CCN(Cc4ccc(F)cc4)CC3)c3ncn(C4CCCC4)c3n2)CC1`, the IC50 came to 1700 nM.

As for `N[C@H]1CC[C@H](Nc2nc(Nc3ccccc3)c3ncn(C4CCCC4)c3n2)CC1`, the IC50 came out at 5.4 nM. On to `Cc1ccc(CN2CCC(Nc3nc(N[C@H]4CC[C@H](N)CC4)nc4c3ncn4C3CCCC3)CC2)cc1Cl`, for which the IC50 was 120 nM and 320 nM. With `N[C@H]1CC[C@H](Nc2nc(NC3CCN(Cc4cc(F)ccc4F)CC3)c3ncn(C4CCCC4)c3n2)CC1` the figure was 670 nM and 220 nM and 510 nM.
